Patent US7919529B2, “δ-amino-γ-hydroxy-ω-aryl-alkanoic acid amides” (Novartis AG, priority 2003, dated 2011)

Molecular target: T1, Recombinant human renin (Homo sapiens, UniProt P00797)
T1 construct: made in house; host or cells: Chinese Hamster Ovary cells
T1 sequence (P00797 67-406): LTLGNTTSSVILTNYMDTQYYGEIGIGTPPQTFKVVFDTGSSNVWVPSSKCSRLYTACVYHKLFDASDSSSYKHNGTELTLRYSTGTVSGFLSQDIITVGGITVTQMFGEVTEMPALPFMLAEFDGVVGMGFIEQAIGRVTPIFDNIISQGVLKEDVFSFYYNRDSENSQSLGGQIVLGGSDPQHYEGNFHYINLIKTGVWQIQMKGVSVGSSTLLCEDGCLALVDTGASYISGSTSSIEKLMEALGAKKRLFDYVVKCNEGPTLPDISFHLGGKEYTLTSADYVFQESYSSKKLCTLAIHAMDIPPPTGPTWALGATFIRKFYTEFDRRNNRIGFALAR
Assay: FRET assay of renin inhibition
Assay type: biochemical
Procedure: Recombinant human renin (expressed in Chinese Hamster Ovary cells and purified using standard methods) at 4 nM concentration is incubated with test compound at various concentrations for 1 h at RT in 0.1 M Tris-HCl buffer, pH 7.4, containing 0.05 M NaCl, 0.5 mM EDTA and 0.05% CHAPS. Synthetic peptide substrate Arg-Glu(EDANS)-Ile-His-Pro-Phe-His-Leu-Val-Ile_His_Thr-Lys(DABCYL)-Arg9 is added to a final concentration of 2 μM and increase in fluorescence is recorded at an excitation wave-length of 340 nm and at an emission wave-length of 485 nm in a microplate spectro-fluorimeter. IC50 values are calculated from percentage of inhibition of renin activity as a function of test compound concentration (Fluorescence Resonance Energy Transfer, FRET, assay).

Q: How did the IC50 turn out when `COCCCOc1cc(C[C@@H](C[C@H](N)[C@@H](O)C[C@H](C(=O)N[C@@H](C)C2CCCCC2)C(C)C)C(C)C)ccc1OC` [Example 29, (2S,4S,5S,7S)-5-Amino-4-hydroxy-2-isopropyl-7-[4-methoxy-3-(3-methoxy-propoxy)-benzyl]-8-methyl-nonanoic acid ((S)-1-cyclohexyl-ethyl)-amide] was run?
A: The IC50 was ~0.3 nM.
